In data set [1] the target is T1, MC1 receptor (Mus musculus, UniProt Q01727). The data set can be described thus: In vitro competitive binding assay with ^125I-Tyr^2-NDP-MSH in B16/F1 melanoma cells. Set-up: host or cells: B16/F1 murine melanoma cells; species or system murine. The method, then:
B16/F1 cells were harvested and seeded into a 24-well cell culture plate (5×10^5 cells/well) and incubated at 37° C. overnight. […] The reaction medium was aspirated after the incubation. The cells were rinsed twice with 0.5 mL of ice-cold pH 7.4, 0.2% BSA/0.01 M phosphate buffered saline (PBS) and lysed in 0.5 mL of 1 N NaOH for 5 minutes. The activities associated with cells were measured in a Wallac 1480 automated gamma counter (PerkinElmer, N.J.). The IC50 value of the peptide was calculated using Prism software (GraphPad Software, La Jolla, Calif.).
B16/F1 cells in 24-well cell culture plates (5×10^5 cells/well) were incubated at room temperature (25° C.) for 2 h with approximately 60,000 cpm of ^125I-Tyr^2-NDP-MSH in the presence of 10^−12 to 10^−5 M of each peptide in 0.3 mL of binding medium {Dulbecco's Modified Eagle's Medium with 25 mM N-(2-hydroxyethyl)-piperazine-N′-(2-ethanesulfonic acid), pH 7.4, 0.2% bovine serum albumin (BSA), 0.3 mM 1,10-phenathroline}. The medium was aspirated after the incubation. […] The activities associated with cells were measured in a Wallac 1480 automated gamma counter (PerkinElmer, Waltham, Mass.). The IC50 value of each peptide was calculated using Prism software (GraphPad Software, La Jolla, Calif.).

A short description of data set [2]: In vitro serum stability in mouse serum. To be noted: 37° C., 24 h. The class given is in vitro ADME. The procedure: After the incubation, 10 μL of 0.5% EDTA aqueous solution was added into the reaction vial to scavenge potential unbound ^111In^3+ ions. The radiolabeled peptide was purified to single species by Waters RP-HPLC (Milford, Mass.) on a Grace Vydac C-18 reverse phase analytical column (Deerfield, Ill.) using a 20-minute gradient of 18-28% acetonitrile in 20 mM HCl aqueous solution with a flow rate of 1.0 mL/min. Purified peptide sample was purged with N2 gas for 20 minutes to remove the acetonitrile. The pH of final solution was adjusted to 7.4 with 0.1 N NaOH and sterile normal saline for animal studies.
Briefly, 50 μL of ^111InCl3 (37-74 MBq in 0.05 M HCl aqueous solution), 10 μL of 1 mg/mL peptide aqueous solution and 400 μL of 0.5 M NH4OAc (pH 4.5) were added into a reaction vial and incubated at 75° C. for 45 mins. After the incubation, 10 μL of 0.5% EDTA (ethylenediaminetetraacetic acid) aqueous solution was added into the reaction vial to scavenge potential unbound ^111In^3+ ions. The radiolabeled complexes were purified to single species by Waters RP-HPLC (Milford, Mass.) on a Grace Vydac C-18 reverse phase analytical column (Deerfield, Ill.) using the following gradient at a 1 mL/min flowrate. The mobile phase consisted of solvent A (20 mM HCl aqueous solution) and solvent B (100% CH3CN). The gradient was initiated and kept at 82:18 A/B for 3 mins followed by a linear gradient of 82:18 A/B to 72:28 A/B over 20 mins. Then, the gradient was changed from 72:28 A/B to 10:90 A/B over 3 mins followed by an additional 5 mins at 10:90 A/B. Thereafter, the gradient was changed from 10:90 AB to 82:18 AB over 3 mins. Each purified peptide sample was purged with N2 gas for 20 mins to remove the acetonitrile. The pH of the final solution was adjusted to 7.4 with 0.1 N NaOH and sterile saline for animal studies. In vitro serum stability of ^111In-DOTA-GGNle-CycMSHhex and ^111In-DOTA-GENle-CycMSHhex were determined by incubation in mouse serum at 37° C. for 24 h and monitored for degradation by RP-HPLC.

Data set [3] has as its system B16/F1 melanoma. The data set can be described thus: Biodistribution in B16/F1 melanoma-bearing C57 mice. To be noted: for tumor uptake blocked by NDP-MSH co-injection: 10 μg (6.07 nmol) NDP-MSH. The class given is in vivo. The procedure:
(§1) All the animal studies were conducted in compliance with Institutional Animal Care and Use Committee approval. The mice were housed five animals per cage in sterile micro-isolator cages in a temperature- and humidity-controlled room with a 12-h light/12-h dark schedule. […] C57 mice were subcutaneously inoculated on the right flank with 1×10^6 B16/F1 cells. The weight of tumors reached approximately 0.2 g 10 days post cell inoculation. […] Groups of 5 mice were sacrificed at 0.5, 2, 4 and 24 h post-injection, and tumors and organs of interest were harvested, weighed and counted. Blood values were taken as 6.5% of the whole-body weight. […] The mice were sacrificed at 2 h post-injection. The tumor and organs of interest were harvested, weighed and counted.
(§2) All animal studies were conducted in compliance with Institutional Animal Care and Use Committee approval. The pharmacokinetics of ^111In-DOTA-GGNle-CycMSHhex and ^111In-DOTA-GENle-CycMSHhex were determined in B16/F1 melanoma-bearing C57 female mice (Harlan, Indianapolis, Ind.). The C57 mice were subcutaneously inoculated with 1×10^6 B16/F1 cells on the right flank for each mouse to generate B16/F1 melanomas. Ten days post inoculation, the tumor weights reached approximately 0.2 g. Each melanoma-bearing mouse was injected with 0.037 MBq of ^111In-DOTA-GGNle-CycMSHhex or ^111In-DOTA-GENle-CycMSHhex via the tail vein. Groups of 5 mice were sacrificed at 0.5, 2, 4 and 24 h post-injection, and tumors and organs of interest were harvested, weighed and counted. Blood values were taken as 6.5% of the whole-body weight. The specificities of the tumor uptake of ^111In-DOTA-GGNle-CycMSHhex and ^111In-DOTA-GENle-CycMSHhex were determined by co-injecting 10 μg (6.07 nmol) of unlabeled NDP-MSH which is a linear α-MSH peptide analogue with picomolar MC1 receptor binding affinity.

Experiment in data set [4]: as above
The class given is in vivo. To be noted: female, C57, mouse, iv, 0.037 MBq, total radioactivity; for tissue to tissue ratio at 4 h: 4 h post-injection. The procedure: as §1, §2

Data set [5] in a line: Metabolites in urine and melanoma by RP-HPLC. The class given is in vivo, C57 mice. To be noted: 2 h post-injection. The procedure:
The mouse used for the imaging study (2 h post-injection) described above was euthanized and the urine was collected for identifying the metabolites. The urinary sample was centrifuged at 16,000 g for 5 min prior to the HPLC analysis. The radioactive metabolite in the urine was analyzed by injecting aliquots of urine into the HPLC. A 20-minute gradient of 18-28% acetonitrile/20 mM HCl was used for the urine analysis.
Both melanoma and urine were collected from the mouse used for SPECT/CT imaging to analyze the metabolites of ^111In-DOTA-GGNle-CycMSHhex in melanoma and urine. The tumor was homogenized by a VWR homogenizer for 5 mins. Equal volume of ethanol was added into the tumor sample. The tumor sample was vortexed and then centrifuged at 16,000 g for 5 mins. The supernatant was transferred into a glass test tube and purged with N2 gas for 20 mins to remove the ethanol. Aliquots of the supernatant were injected into HPLC. The urinary sample was directly centrifuged at 16,000 g for 5 mins prior to the HPLC analysis. Thereafter, aliquots of the urine were injected into HPLC. The HPLC gradient described above was used for the analyses of metabolites.

Data set [6] has as its target MC1 receptor (Homo sapiens, UniProt Q01726). Conditions: references 25, 26; cited from earlier work.
Data set [7] addresses T1, MC1 receptor. To be noted: cited from earlier work.
Data set [8] has as its system B16/F1 melanoma. Conditions: references 19, 20; cited from earlier work.
In data set [9] the test system is B16/F1 melanoma. Conditions: mouse, in vivo; cited from earlier work.

Positions of bridges follow the written chain, without caps; N, C: chain ends. Non-standard residues stand in square brackets, D forms with d. Residues, ends and D or L forms follow the SMILES beside them. No end group written: not given here. *: point of attachment. DOTA = O=C(O)CN1CCN(CC(=O)O)CCN(CC(=O)*)CCN(CC(=O)O)CC1; Nle = CCCC[C@H](N)C(=O)O

Sequence of MC1 receptor (Homo sapiens, UniProt Q01726) (Q01726 whole entry): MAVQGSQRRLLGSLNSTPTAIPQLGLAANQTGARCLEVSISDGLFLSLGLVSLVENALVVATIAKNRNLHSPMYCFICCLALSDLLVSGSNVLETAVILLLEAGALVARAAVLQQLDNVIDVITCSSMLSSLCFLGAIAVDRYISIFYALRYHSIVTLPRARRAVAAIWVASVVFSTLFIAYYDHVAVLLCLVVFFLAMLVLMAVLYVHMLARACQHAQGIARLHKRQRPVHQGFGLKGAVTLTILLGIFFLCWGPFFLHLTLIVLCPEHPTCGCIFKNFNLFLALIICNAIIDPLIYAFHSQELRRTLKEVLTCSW
T1 sequence (Q01727 whole entry): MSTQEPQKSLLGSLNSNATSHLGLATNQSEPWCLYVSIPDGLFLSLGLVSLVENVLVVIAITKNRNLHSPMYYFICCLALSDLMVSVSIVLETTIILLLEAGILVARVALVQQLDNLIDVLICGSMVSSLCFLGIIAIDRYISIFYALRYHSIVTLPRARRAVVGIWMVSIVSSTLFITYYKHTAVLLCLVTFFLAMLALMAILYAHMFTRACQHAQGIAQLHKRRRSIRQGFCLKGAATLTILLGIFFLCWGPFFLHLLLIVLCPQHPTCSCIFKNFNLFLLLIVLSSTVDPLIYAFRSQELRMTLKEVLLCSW

Turning to `CCCC[C@H](NC(=O)CN1CCN(CC(=O)O)CCN(CC(=O)O)CCN(CC(=O)O)CC1)C(=O)NCC(=O)N[C@@H](CCC(=O)O)C(=O)N[C@H]1CC(=O)NCCCC[C@@H](C(N)=O)NC(=O)[C@H](Cc2c[nH]c3ccccc23)NC(=O)[C@H](CCCNC(=N)N)NC(=O)[C@@H](Cc2ccccc2)NC(=O)[C@H](Cc2c[nH]cn2)NC1=O` [DOTA-NleGE-CycMSHhex] ({DOTA}-[Nle]GEDH[dF]RWK-NH2; lactam 4-9), the “lower receptor binding affinity than DOTA-GGNle-CycMSHhex and DOTA-GENle-CycMSHhex” value on MC1 receptor [1] is given as “at least 78 fold”.

For the molecule `CCCC[C@H](NC(=O)[C@H](CCC(=O)O)NC(=O)CNC(=O)CN1CCN(CC(=O)O)CCN(CC(=O)O)CCN(CC(=O)O)CC1)C(=O)N[C@H]1CC(=O)NCCCC[C@@H](C(N)=O)NC(=O)[C@H](Cc2c[nH]c3ccccc23)NC(=O)[C@H](CCCNC(=N)N)NC(=O)[C@@H](Cc2ccccc2)NC(=O)[C@H](Cc2c[nH]cn2)NC1=O` [^111In-DOTA-GENle-CycMSHhex, metal not drawn] ({DOTA}-GE[Nle]DH[dF]RWK-NH2; lactam 4-9), in [2], the “serum stability by RP-HPLC” value is “stable”. In addition, the “tumor uptake blocked by NDP-MSH co-injection” value with B16/F1 melanoma [3] (2 h post-injection) was 95.6%. The Kidneys uptake is recorded as 9.06±2.20 % ID/g in the data set on B16/F1 melanoma [3] (0.5 h post-injection) and 5.54±0.63 % ID/g with B16/F1 melanoma [3] (2 h post-injection). Moreover, the Tumor/Skin uptake ratio in the data set on B16/F1 melanoma [3] (0.5 h post-injection) was found to be 7.21; in the data set with B16/F1 melanoma [3] (2 h post-injection), 24.30; in the data set on B16/F1 melanoma [3] (4 h post-injection), 44.17; with B16/F1 melanoma [3] (24 h post-injection), 27.50.

On to `CCCC[C@H](NC(=O)CNC(=O)CNC(=O)CN1CCN(CC(=O)O)CCN(CC(=O)O)CCN(CC(=O)O)CC1)C(=O)N[C@H]1CC(=O)NCCCC[C@@H](C(N)=O)NC(=O)[C@H](Cc2c[nH]c3ccccc23)NC(=O)[C@H](CCCNC(=N)N)NC(=O)[C@@H](Cc2ccccc2)NC(=O)[C@H](Cc2c[nH]cn2)NC1=O` [^111In-DOTA-GGNle-CycMSHhex, metal not drawn] ({DOTA}-GG[Nle]DH[dF]RWK-NH2; lactam 4-9), for which the “serum stability by RP-HPLC” value in data set [2] is “stable”. The tissue uptake at 2 h in data set [4] (liver, 2 h post-injection, read-out: Liver uptake) was less than 0.61 %ID/g. Moreover, in [4] (tumor and kidney, tumor/kidney uptake ratio, times that of ^111In-DOTA-Nle-CycMSHhex), the tissue to tissue ratio at 4 h came out at 1.61. Moreover, the tissue to tissue ratio at 2 h in data set [4] (tumor and kidneys, tumor/kidney uptake ratio, times that of ^111In-DOTA-Nle-CycMSHhex, 2 h post-injection) came out at 1.37. In addition, the tissue to tissue ratio at 4 h in data set [4] (tumor and liver, tumor/liver uptake ratio, times that of ^111In-DOTA-Nle-CycMSHhex) was 3.13. Also, in the data set on B16/F1 melanoma [3] (2 h post-injection), the “tumor uptake blocked by NDP-MSH co-injection” value was “Approximately 98%”, the Kidneys uptake turned out to be 6.84±0.92 % ID/g, the Tumor uptake came out at 19.05±5.04 % ID/g and the Tumor/Skin uptake ratio stood at 70.56. In addition, the “tumor uptake, times that of ^111In-DOTA-GENle-CycMSHhex” value (“tumor uptake, times that” below) in the data set with B16/F1 melanoma [3] (2 h post-injection) worked out at 2.5 times. For the same molecule, in the data set with B16/F1 melanoma [3] (0.5 h post-injection), the Kidneys uptake is reported as 15.19±2.75 % ID/g; the Tumor uptake is reported as 18.39±2.22 % ID/g; the Tumor/Skin uptake ratio is listed as 8.51; the “tumor uptake, times that” value is listed as 2 times. In the data set with B16/F1 melanoma [3] (4 h post-injection), the Tumor uptake amounted to 18.6±3.56 % ID/g; the Tumor/Liver uptake ratio came to 31.0; the Tumor/Skin uptake ratio was 68.89; the “tumor uptake, times that” value worked out at 3 times. Also, in the data set with B16/F1 melanoma [3] (24 h post-injection), the Tumor uptake is given as 6.77±0.84 % ID/g and the Tumor/Skin uptake ratio amounted to 26.04. Moreover, the “melanoma metabolites by HPLC” value in data set [5] (tumor) was “remained intact”. For the same molecule, the “urinary metabolites by HPLC” value in data set [5] (urine) is reported as “remained intact”.

Turning to “Ac-Nle-c[Asp-His-DPhe-Arg-Trp-Lys(CONH2)] [MT-II]”, on MC1 receptor [6], the “MC1 receptor binding affinity compared with the native α-MSH peptide” value is “higher” and the “MC1 receptor dissociation rate compared with the native α-MSH peptide” value is “slower”.

With [Nle^4, D-Phe^7]-α-MSH [NDP-MSH], the “affinity for the MC1 receptor” value at MC1 receptor [7] is on record as “picomolar”.

“{DOTA}-GEK[Nle]EH[dF]RWGRPVD (lactam 3-14) [^111In-DOTA-GlyGlu-CycMSH, reference compound]”: the “visualization of flank primary and pulmonary metastatic melanoma lesions by SPECT/CT” value in the data set on B16/F1 melanoma [8] is recorded as “clearly visualized”. In addition, the “tumor radioactivity at 2 h remaining in tumors at 24 h” value with B16/F1 melanoma [9] is listed as 22.8%.

The record behind these values is US9493537B2, “Compounds with reduced ring size for use in diagnosing and treating melanoma, including metastatic melanoma and methods related to same” (STC.UNM, priority 2009, dated 2016).
